Values of other authors in US20250195566A1, “ORAL PHARMACEUTICAL COMPOSITION FOR PREVENTING AND/OR TREATING DISEASES OF THE SOFT AND HARD TISSUES SURROUNDING THE TOOTH IN THE ORAL CAVITY” (priority 2021, published 2025).

How the values were obtained:
[1] = tested on: 52 bacteria isolated from subgingival plaque; settings: bacteria isolated from patients with periodontitis
[2] = tested on: supragingival bacterial plaque and gingival inflammation; settings: clinical results

N=C(NCCCCCCNC(=N)NC(=N)Nc1ccc(Cl)cc1)NC(=N)Nc1ccc(Cl)cc1 [chlorhexidine, Chlorhexidine]
concentration at which all bacteria were inhibited [1]: 250 mg/mL | reduction of gingival inflammation [2]: 45% | reduction of supragingival bacterial plaque [2]: 55%
